From PMC8509398, “Proteolytic Cleavage of Bioactive Peptides and Protease-Activated Receptors in Acute and Post-Colitis” (International Journal of Molecular Sciences, 2021)
Residues, ends and D or L forms follow the SMILES beside them.

How the values were obtained:
tryptase = tryptase (Homo sapiens, UniProt Q15661); test: Cleavage of peptides by purified tryptase, MALDI-TOF/TOF; conditions: 25 nM protease, 10 µM peptide
Description: Trypsin-like proteases included in the experiments are trypsin-1, -2 and -3, tryptase (Enzo LifeSciences), thrombin (Sigma-Aldrich) and cathepsin G (Sigma-Aldrich). Trypsin-1, -2 and -3 were produced as described by Koistinen et al. and Wu et al.. Two elastase-like enzymes, neutrophil elastase (Enzo LifeSciences, Farmingdale, NY, USA) and pancreatic elastase I (Sigma-Aldrich) were included as well. All enzymes were from human origin except for pancreatic elastase from porcine pancreas.
Reaction mixtures with purified enzymes were compiled in an identical way. Each mixture contained an equimolar concentration of protease (25 nM based on) and 10 µM peptide of interest and was incubated for 2, 5, 10 and 30 min at 37 °C. Substance P was added as the standard peptide except for the reaction mixtures with substance P or bradykinin as the peptide of interest, where angiotensin II (Bachem) was added.
(§1) The TFA mixtures were thawed on ice and desalted using C18 zip-tips (Merck Millipore®, Burlington, MA, USA) with a capacity of 5 µg protein. Retained peptide fragments were eluted directly on the MALDI target plate. Next, 0.5 µL of a 2.5 mg/mL α-cyano-4-hydroxycinnamic acid (Sigma-Aldrich) matrix solution (in 70% acetonitrile, 0.1% TFA) was spotted on top of the sample. A 6-Peptide mixture Kit (AB Sciex, Framingham, MA, USA) containing bradykinin (2–9), angiotensin I, glu1-fibrinopeptide, ACTH (1–17), ACTH (18–39) and ACTH (7–38) was diluted with matrix and spotted on the plate as well.
MS and MS/MS data for peptide fragment identification were obtained with a MALDI-TOF/TOF instrument (4800 MALDI TOF/TOF™, Applied Biosystems, Waltham, MA, USA) and instrument parameters were set using 4000 Series Explorer™ software. MS spectra were recorded in positive reflector mode in a mass range from 500 to 4000 Da and laser intensity of 4500–4800 Hz. The spectra were calibrated using the calibration mixture mentioned above to a mass tolerance of 0.1 Da. MS/MS spectra were recorded with high-energy collision-induced dissociation and the laser intensity was increased by 10%. Precursor mass m/z 1570.65 (Glu1-Fibrinopeptide from the calibration mixture) was used to calibrate the MS/MS spectra to a mass tolerance of 0.1 Da.
MS and MS/MS spectra were processed using DataExplorer™ software and the obtained output files were uploaded in the MS-PEP data analyzer (https://bioit.shinyapps.io/PARs/ accessed 10/08/2020) for peptide fragment identification. Identified fragments were confirmed using the MS/MS spectra and mMass 5.5.0 by Martin Strohalm. The relative intensities of the fragments were calculated as the ratio of the intensity of the peak of interest to the intensity of the peak of the standard peptide.

[1] = Cleavage of peptides by colonic tissue lysates from TNBS-induced colitis rat model, MALDI-TOF/TOF; conditions: 10 µM peptide, 20 µg/mL protein, 37 °C, MALDI-TOF/TOF
Experimental: Adult male Sprague–Dawley rats (200–225 g; Charles River, Wilmington, MA, USA) were used in a previously described TNBS-induced acute and post-inflammatory model. Rats were housed at constant room temperature (22 ± 2 °C) and humidity (60%) with two rats per cage, unlimited access to water and food and on a 12 h–12 h light/dark cycle.
After an overnight fast, TNBS colitis was induced using a TNBS-enema (4 mg TNBS; Sigma-Aldrich, 50% ethanol) as described previously. Rats were anesthetized with a mixture of ketamine (35 mg/kg i.p.; Ketalar®, Pfizer, New York City, NY, USA) and xylazine (5 mg/kg i.p.; Rompun®, Bayer, Leverkusen, Germany), and the TNBS-enema or 0.9% saline was administered intrarectally using a flexible catheter (18 G, length 4.5 cm) to colitis and control rats, respectively. Animals were kept in a tail-up position for 1 min and were then allowed to recover in their cages with free access to water and food. […] For the post-colitis group (n = 8), a colonoscopy was performed starting from day 10 and repeated every 4 days until complete mucosal healing was observed. The rats were then sacrificed as well and colonic samples were taken.
Colonic lysates were prepared for studying their effects on cleavage patterns of added peptides with a MALDI-TOF/TOF assay. After sacrifice, a sample of approximately 50 mg of distal colon was taken from each rat. The colonic samples were immediately rinsed with Krebs solution, snap-frozen and stored at −80 °C until further processing. Sample preparation started with crushing the colonic samples on dry ice. Liquid nitrogen was used to prevent the loss of enzymatic activity due to temperature increases and the colon powders were stored at −80 °C for further experiments. […] After centrifugation, the supernatants were collected and used immediately to prepare the reaction mixtures, measure proteolytic activities with fluorogenic substrates and determine the protein content with a Bradford assay.
Colonic lysate was added to a peptide of interest to obtain the reaction mixtures with the colonic samples. Lysate and peptide were diluted so each mixture contained 10 µM peptide of interest and 20 µg/mL protein originating from the colonic tissue. These peptide and protein concentrations were based on research from Loew et al. and O’ Donoghue et al.. The mixtures were incubated at 37 °C for several incubation periods between 5 and 30 min. Afterward, the fragmentation reaction was stopped by adding trifluoroacetic acid (TFA; Alfa Aesar™, ThermoFisher, Waltham, MA, USA) to a final concentration of 2% and standard peptide (substance P, bradykinin or PAR3-based peptide) was added in a final concentration of 10 µM. Standard peptides were selected based on the mass of the peptides of interest. For each sample/peptide combination, a starting point was included as well. Here, TFA was added immediately after mixing the reaction constituents. Samples were stored at −80 °C for further MALDI-TOF/TOF experiments.
as §1
MS and MS/MS data for peptide fragment identification were obtained with a MALDI-TOF/TOF instrument (4800 MALDI TOF/TOF™, Applied Biosystems, Waltham, MA, USA) and instrument parameters were set using 4000 Series Explorer™ software. MS spectra were recorded in positive reflector mode in a mass range from 500 to 4000 Da and laser intensity of 4500–4800 Hz.

[2] = PAR-based peptides, 37 °C, 2, 5, 10 and 30 min

tryptase, sequence (Q15661 31-275): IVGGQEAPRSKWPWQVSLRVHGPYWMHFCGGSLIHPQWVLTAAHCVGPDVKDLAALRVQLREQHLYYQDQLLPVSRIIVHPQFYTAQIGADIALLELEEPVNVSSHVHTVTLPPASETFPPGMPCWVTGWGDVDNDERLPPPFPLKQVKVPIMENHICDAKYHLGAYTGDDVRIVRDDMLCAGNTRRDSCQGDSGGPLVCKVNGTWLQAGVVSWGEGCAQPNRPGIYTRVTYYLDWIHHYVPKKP

Incubation time at which the first cleavage or decrease of the full-length peptide was observed, tryptase (tryptase; 37 °C, time points 2, 5, 10, 30 min): 2 min | TL disarming (D), Tryptase (tryptase; [2]): − | TL unmasking (U), Tryptase (tryptase; [2]): +++ (ultrafast processing within 2 min) | Number of colonic samples in which the TL-sequence unmasking cleavage was observed, acute colitis ([1]; acute colitis lysates, n = 8, PAR1-based after 30 min): four out of eight | Number of colonic samples in which the TL-sequence unmasking cleavage was observed, control ([1]; control lysates, n = 8, PAR1-based after 30 min): two out of eight | Number of colonic samples in which the TL-sequence unmasking cleavage was observed, post-colitis ([1]; post-colitis lysates, n = 8, PAR1-based after 30 min): three out of eight | Processing by colonic samples, in words (comparison of control, post-colitis and acute colitis) ([1]; rat colonic lysates, up to 30 min, n = 8 per group): no differences
Structure (SMILES): CC[C@H](C)[C@H](NC(=O)[C@H](CC(C)C)NC(=O)[C@H](CO)NC(=O)[C@H](CCCNC(=N)N)NC(=O)CNC(=O)[C@H](CCCCN)NC(=O)[C@H](CO)NC(=O)[C@H](CO)NC(=O)[C@H](CCCNC(=N)N)NC(=O)[C@H](CC(N)=O)NC(=O)[C@@H](NC(=O)CNC(=O)[C@H](CCC(N)=O)NC(=O)[C@@H](NC(=O)[C@@H](N)[C@@H](C)O)[C@@H](C)CC)[C@@H](C)O)C(=O)NCC(=O)N[C@@H](CCCCN)C(=O)N[C@H](C(=O)N[C@@H](CC(=O)O)C(=O)NCC(=O)N[C@H](C(=O)N[C@@H](CO)C(=O)N[C@@H](Cc1c[nH]cn1)C(=O)N[C@H](C(N)=O)C(C)C)[C@@H](C)O)C(C)C [PAR2-based] (H-TIQGTNRSSKGRSLIGKVDGTSHV-NH2)
